Among the data in patent US20090010979A1, “Method of Controlling Termites” (BAYER CROPSCIENCE LP, priority 2004, published 2009) are movement in soil values, retold here.

The nature of the series: Arrestant composition on silica with Premise 75WP distributed in soil: movement of components. It counts as physicochemical. The note with it: after several months. As for the experimental part:
(A) Preparation of the arrestant composition: A mixture of 5-methylpentacosane, 11-methylpentacosane, 9-Z-pentacosene, n-pentacosane, and n-hexamethylcosane in proportion of about 11.4:36.3:19.6:27.7:5.0 as a 0.06% (by weight) solution in acetone (0.06 g) was diluted into acetone and mixed with 149.4 g of Zeolex® 7A brand silica (J.M. Huber, Inc. USA) The acetone was removed by evaporation at 50° C. at 3.5 mm Hg to provide a smooth flowable powder. The powder was mixed with 850 g of Premise® 75WP (imidacloprid active ingredient), and milled to a consistent appearance.
(B) Use of the Arrestant Composition of Part (A): The final product is distributed in soil.

Take `O=[N+]([O-])NC1=NCCN1Cc1ccc(Cl)nc1` [imidacloprid]: the movement in soil result was “moves downward”.
